Read-outs that look alike come from different tables or passages of the source.
Assays:
NCI-H1299 cells = test: Subcellular distribution of Pt (mitochondria, lysosomes, nucleus, residual); conditions: NCI-H1299, 10 μM, 4 h, ICP-MS
Text: (§1) One of the main factors to determine the mechanism of cytotoxic activity of a metal-based drug is its ability to cross the cell membrane and to accumulate in cancer cells. Therefore, with the aim of correlating cellular accumulation, we investigated the cellular uptake of the platinum complexes in A549, NCI-H1299 cancer cells and L02 normal cell. […] Moreover, the amount of Pt in the different subcellular compartments of cancer cells was quantified to fetch a more detailed picture of Pt-based complexes intracellular localization (Figure 1C).
(§2) The cells were seeded in 6-well plates overnight and then incubated with 10 μM drugs at 37°C in standard culture conditions. After 4 h, the cells were washed with PBS buffer (pH 7.4) for three times, and harvested by trypsinization. […] The organelles were then isolated via differential centrifugation. All cellular compartments (mitochondria, lysosomes and nucleus) were isolated from A549 and NCI-H1299 cancer cells for direct comparative purposes. The supernatant phases discarded during the isolation of nuclei, lysosomes and mitochondria procedures were collected and formed the “residual” fraction. An aliquot of crude lysate after homogenization, nuclear, mitochondrial (pellet lysed via freeze and thaw cycles followed by 20 min incubation in ultrasonic bath), lysosomal and residual fraction was each used for protein quantification using the Bradford method. The harvested cells were concentrated and digested by nitric acid for the ICP measurement. The cell numbers were counted before the digested. For the measurement of Pt concentration in cellular DNA in A549, NCI-H1299 cancer cells, DNA was isolated by applying Genomic DNA Mini Preparation Kit (Beyotime, China), and Pt content in DNA was analyzed by ICP.

A549 cells = test: as above; conditions: A549, 10 μM, 4 h, ICP-MS
Text: as §1, §2

[1] = Blood stability test with rat plasma (ICP-MS); type: in vitro ADME; conditions: 37°C, 10 μM (method: 50 μM)
Method: Thus, we investigated the stability of complex 3 in rat plasma via ICP-MS measurement. Fresh rat plasma was added with a DMSO solution of complex 3 (10 μM). After incubation for 0, 2, 4 and 8 h at 37°C, the Pt content in rat plasma was measured by ICP-MS. […] This interaction contributes to the promising stability of complex 3 in rat plasma.
At varying time points (0, 2, 4 and 8 h) at 37°C, a 300 μL aliquot was removed from the incubating blood. The ICP-MS measurement was served to confirm the blood stability of complex 3 in rat plasma.

p-Akt = test: Western blot of PI3K/Akt/mTOR pathway; type: cell-based, human; conditions: A549, 10 μM, 24 h, relative to control
Text: (§3) The mammalian target of rapamycin (mTOR) kinase is used to regulate autophagy as controlled though oxidative stress, hypoxia and growth receptors. The phosphatidylinosital-3 kinase (PI3K)/Akt signaling pathway activates mTOR through phosphorylating and inactivating the tuberous sclerosis complex (TSC)1–TSC2 complex. Inhibition of mTOR results in activation of autophagy. […] At the same time, levels of the p-Akt protein decreased to 0.95-, 1.02-, and 0.39-folds, respectively (Figure 7B). […] As a results, the administration of complex 3 decreased levels of proteins in PI3K/Akt/mTOR signaling pathways.
(§4) Lysates were centrifuged at 12,000 g for 0.5 h at 4°C. The concentrations of total proteins were measured using the BCA assay method with Varioskan spectrofluorometer and spectrophotometer (Thermo, Waltham, MA) at 562 nm. Protein (20–100 μg) prepared from the indicated cells was loaded per lane and electrophoresed in 8% or 10% sodium dodecyl sulfate polyacrylamide gel electrophoresis (SDS-PAGE), and then transferred onto polyvinylidene difluoride (PVDF) Immobilon-P membrane (Bio-Rad, USA) using a transblot apparatus (Bio-Rad, USA). The membranes were blocked with 5% (w/v) non-fat milk at 0.5 h at 37°C, followed by overnight incubation at 4°C with primary antibodies diluted in PBST. After washing with PBST, the membranes were incubated for 1 h with an IRDye´800 conjugated secondary antibody diluted 1:20000 in PBST, and the labeled proteins were detected with an Odyssey Scanning System (Li-COR., Lincoln, Nebraska, USA).

p-mTOR = test: Western blot of PI3K/Akt/mTOR pathway; type: cell-based, human; conditions: A549, 10 μM, 24 h, relative to control
Text: as §3, §4

A549 = test: MTT cytotoxicity assay; type: cell-based, human; conditions: 48 h drug exposure
Method: (§5) The results reveal that the steric hindrance plays a significant role in the cytotoxicity of complex 3.
(§6) The effects of complex 3 on the viability of NSCLC cancer cells including A549 and NCI-H1299 were detected respectively via MTT assays at time points of 12, 24, 48 and 72 h (Figure 2A). The results shown that complex 3 could inhibit the viability of the NSCLC cells.
(§7) Human cancer cell lines HepG2, SGC-7901, HCT-116, A549, NCI-H1299 and MCF-7 as well as normal liver cell line L02 were purchased from the Cell Bank of Shanghai Institute of Cell Biology. Among them, MCF-7, HepG2 cells were cultured at 37 °C in 5% CO2 with DMEM supplemented with 10% fetal bovine serum (FBS) (Hyclone, Lifescience, USA) and 1% penicillin/streptomycin (Beyotime, Nantong, China), while HCT-116, SGC-7901, A549, NCI-H1299 and L02 cells were cultured at 37 °C in 5% CO2 with RPMI-1640 supplemented with 10% FBS and 1% penicillin/streptomycin. Cells were passed every 2 days and restarted from frozen stocks upon reaching pass number 20.
(§8) In vitro cytotoxicity of the platinum compounds against human hepatocellular carcinoma (HepG-2), gastric carcinoma (SGC-7901), non-small-cell lung cancer (A549), and colorectal cancer (HCT-116) cell lines were measured by the MTT assays. Briefly, the cells were seeded in 96-well cultured plates at a density of 5000 cells/well. After overnight incubation (16 h), the cells were treated with the platinum complexes. After 48 h of incubation, 10 μL of a freshly diluted 3-(4,5-dimethyl-2-thiazolyl)-2,5-diphenyl-2H-tetrazolium bromide (MTT) solution (5 mg/mL) were added to each well and the plates were incubated at 37 °C in a humidified 5% CO2 atmosphere for 4 h. At the end of the incubation period the medium was removed and the formazan product was dissolved in 150 μL of DMSO. The cell viability was evaluated by measurement of the absorbance at 490 nm, using an Absorbance Reader (BioRad). IC50 values (compound concentration that produces 50% of cell growth inhibition) were calculated from curves constructed by plotting cell survival inhibitory rate (%) versus drug concentration logarithm. All experiments were repeated in three times. The reading values were converted to the percentage of control (% cell survival). Cytotoxic effects were expressed as IC50 values.

NCI-H1299 = test: MTT cytotoxicity assay; type: cell-based, human
Method: as §5, §6, §7, §8

[2] = 48 h drug exposure, read-out: IC50 NCI-H1299

## CC(C)C[NH+]1[C@@H]2CCCC[C@H]2[NH+](CC(C)C)[Pt-2]12[O]C(=O)CC(=O)[O]2 (stereo partly drawn) [Complex 3]
NCI-H1299 cells
  share of intracellular Pt, nucleus: 72%
A549 cells
  share of intracellular Pt, nucleus: 79%
[1]
  t1/2 in rat plasma (stability): 27.6 h
p-Akt
  levels of the p-Akt protein: 1.02 folds
p-mTOR
  amounts of p-mTOR: 1.41 folds
A549
  IC50: 14.2 ± 1.22 µM
NCI-H1299; 24 h, 2 to 128 μM, read-out: IC50 NCI-H1299 exposed for 24 h
  IC50: 7.42 µM
NCI-H1299; [2]
  IC50: 20.9 ± 1.36 µM

## O=C1[O][Pt]2([NH][C@@H]3CCCC[C@H]3[NH]2)[O]C1=O [Oxaliplatin, oxaliplatin, reference compound]
NCI-H1299 cells
  share of intracellular Pt, nucleus: 57%
A549 cells
  share of intracellular Pt, nucleus: 63%
[1]
  t1/2 in rat plasma (stability): ~ 13.1 h
p-Akt
  levels of the p-Akt protein: 0.95 folds
p-mTOR
  amounts of p-mTOR: 1.15 folds
A549
  IC50: 112 ± 11.3 µM
NCI-H1299; [2]
  IC50: 62.4 ± 2.35 µM

From paper PMC5458179, “Oxidative DNA double strand breaks and autophagy in the antitumor effect of sterically hindered platinum(II) complexes in NSCLCs” (Oncotarget, 2017)
